From the NIST ThermoML archive (doi:10.1016/j.jct.2016.08.022)

Experiment: molar heat capacity at constant pressure
Settings: 101.33 kPa, Small (less than 1 g) adiabatic calorimetry

CCC(=O)O[C@]1(C(=O)COC(C)=O)CC[C@H]2[C@@H]3C[C@H](C)C4=CC(=O)C=C[C@]4(C)[C@H]3[C@@H](O)C[C@@]21C [Methylprednisolone aceponate]
Settings | molar heat capacity at constant pressure [J/K/mol]
5 K, Crystal 2 | 1.87
7.53 K, Crystal 2 | 6.019
7.84 K, Crystal 2 | 6.56
8.09 K, Crystal 2 | 7.014
8.41 K, Crystal 2 | 7.67
8.68 K, Crystal 2 | 8.278
9 K, Crystal 2 | 8.893
9.32 K, Crystal 2 | 9.535
9.64 K, Crystal 2 | 10.2
9.98 K, Crystal 2 | 10.97
10 K, Crystal 2 | 11
10.31 K, Crystal 2 | 11.76
10.64 K, Crystal 2 | 12.47
10.99 K, Crystal 2 | 13.1
11.33 K, Crystal 2 | 13.78
11.69 K, Crystal 2 | 14.32
12.05 K, Crystal 2 | 15.03
12.88 K, Crystal 2 | 16.64
14.18 K, Crystal 2 | 19.38
15 K, Crystal 2 | 21.09
15.44 K, Crystal 2 | 22.08
16.83 K, Crystal 2 | 25.33
18.19 K, Crystal 2 | 28.78
19.58 K, Crystal 2 | 32.36
20 K, Crystal 2 | 33.51
22.18 K, Crystal 2 | 39.37
25 K, Crystal 2 | 47.69
25.63 K, Crystal 2 | 49.56
29.09 K, Crystal 2 | 59.46
30 K, Crystal 2 | 61.69
32.6 K, Crystal 2 | 68.53
36.13 K, Crystal 2 | 78.23
39.68 K, Crystal 2 | 88.41
40 K, Crystal 2 | 89.06
43.24 K, Crystal 2 | 97.8
46.82 K, Crystal 2 | 106.2
50 K, Crystal 2 | 115
50.41 K, Crystal 2 | 116.3
54 K, Crystal 2 | 126.6
57.6 K, Crystal 2 | 136
60 K, Crystal 2 | 142.6
61.21 K, Crystal 2 | 145.2
64.82 K, Crystal 2 | 155
68.42 K, Crystal 2 | 163.9
70 K, Crystal 2 | 167.5
72.02 K, Crystal 2 | 173
75.66 K, Crystal 2 | 181.2
79.32 K, Crystal 2 | 190.9
80 K, Crystal 2 | 193.1
82.52 K, Crystal 2 | 200.1
82.95 K, Crystal 2 | 200.9
85.14 K, Crystal 2 | 206.2
86.58 K, Crystal 2 | 209.8
87.56 K, Crystal 2 | 212.6
89.97 K, Crystal 2 | 218.2
90 K, Crystal 2 | 218.2
92.39 K, Crystal 2 | 223.5
94.8 K, Crystal 2 | 229
97.21 K, Crystal 2 | 234.8
97.3 K, Crystal 2 | 235.6
99.62 K, Crystal 2 | 240.5
100 K, Crystal 2 | 241.2
100.7 K, Crystal 2 | 243.6
102.02 K, Crystal 2 | 245.8
104.08 K, Crystal 2 | 251
104.42 K, Crystal 2 | 251.6
106.93 K, Crystal 2 | 257.8
107.83 K, Crystal 2 | 258.9
109.22 K, Crystal 2 | 263
109.71 K, Crystal 2 | 263.2
110 K, Crystal 2 | 264.5
111.62 K, Crystal 2 | 268.1
112.99 K, Crystal 2 | 270.3
114.02 K, Crystal 2 | 273.7
116 K, Crystal 2 | 277
116.42 K, Crystal 2 | 278.5
118.81 K, Crystal 2 | 283.7
119.02 K, Crystal 2 | 283.2
120 K, Crystal 2 | 286.4
121.2 K, Crystal 2 | 288.9
122.04 K, Crystal 2 | 290.1
123.59 K, Crystal 2 | 295.1
125.06 K, Crystal 2 | 297.7
125.98 K, Crystal 2 | 300
128.08 K, Crystal 2 | 305.6
128.36 K, Crystal 2 | 306
130 K, Crystal 2 | 309.4
130.74 K, Crystal 2 | 310.7
131.09 K, Crystal 1 | 312.1
133.12 K, Crystal 1 | 311.6
134.11 K, Crystal 1 | 310
135.5 K, Crystal 1 | 309.5
137.13 K, Crystal 1 | 310.6
137.88 K, Crystal 1 | 312.2
140 K, Crystal 1 | 315.4
140.15 K, Crystal 1 | 315.8
140.25 K, Crystal 1 | 315.6
142.62 K, Crystal 1 | 319.4
143.15 K, Crystal 1 | 320.6
144.98 K, Crystal 1 | 324.5
146.15 K, Crystal 1 | 326.3
147.34 K, Crystal 1 | 328.3
149.14 K, Crystal 1 | 331.8
149.69 K, Crystal 1 | 333.1
150 K, Crystal 1 | 333
152.05 K, Crystal 1 | 336.9
152.14 K, Crystal 1 | 336.7
154.41 K, Crystal 1 | 341
155.13 K, Crystal 1 | 342
156.76 K, Crystal 1 | 344
158.09 K, Crystal 1 | 347.4
159.09 K, Crystal 1 | 348.8
160 K, Crystal 1 | 351
161.07 K, Crystal 1 | 352.5
161.43 K, Crystal 1 | 353.5
163.77 K, Crystal 1 | 357.7
164.05 K, Crystal 1 | 358.2
166.12 K, Crystal 1 | 361.8
167.01 K, Crystal 1 | 363.8
168.46 K, Crystal 1 | 366.9
169.98 K, Crystal 1 | 368.9
170 K, Crystal 1 | 368.7
170.8 K, Crystal 1 | 371.1
172.94 K, Crystal 1 | 373.7
173.13 K, Crystal 1 | 375
175.46 K, Crystal 1 | 378.6
175.89 K, Crystal 1 | 379.5
177.8 K, Crystal 1 | 381
178.84 K, Crystal 1 | 383.9
180 K, Crystal 1 | 386.3
180.1 K, Crystal 1 | 385.2
181.78 K, Crystal 1 | 389.3
182.38 K, Crystal 1 | 390.4
184.68 K, Crystal 1 | 394.6
184.72 K, Crystal 1 | 394.9
186.99 K, Crystal 1 | 398.4
187.66 K, Crystal 1 | 399.4
189.31 K, Crystal 1 | 403.5
190 K, Crystal 1 | 404
190.59 K, Crystal 1 | 405.5
191.61 K, Crystal 1 | 407.4
193.51 K, Crystal 1 | 410.5
193.93 K, Crystal 1 | 410.9
196.2 K, Crystal 1 | 415.5
196.43 K, Crystal 1 | 414.4
198.49 K, Crystal 1 | 418.9
199.33 K, Crystal 1 | 420.1
200 K, Crystal 1 | 421.8
200.78 K, Crystal 1 | 422.8
202.47 K, Crystal 1 | 425.8
203.07 K, Crystal 1 | 427.7
205.36 K, Crystal 1 | 432.9
205.78 K, Crystal 1 | 432.4
207.65 K, Crystal 1 | 435.8
209.13 K, Crystal 1 | 438
209.94 K, Crystal 1 | 439.7
210 K, Crystal 1 | 439.9
212.24 K, Crystal 1 | 444.3
212.49 K, Crystal 1 | 444.8
214.54 K, Crystal 1 | 448.4
215.85 K, Crystal 1 | 450.6
217 K, Crystal 1 | 451.2
219.13 K, Crystal 1 | 456
219.21 K, Crystal 1 | 456.5
220 K, Crystal 1 | 458.2
221.43 K, Crystal 1 | 460.8
222.56 K, Crystal 1 | 463.6
223.73 K, Crystal 1 | 465.6
226.03 K, Crystal 1 | 469.3
228.32 K, Crystal 1 | 473.5
230 K, Crystal 1 | 476.5
230.63 K, Crystal 1 | 477.8
232.91 K, Crystal 1 | 481.1
235.22 K, Crystal 1 | 485.8
237.52 K, Crystal 1 | 490.6
239.83 K, Crystal 1 | 495.3
240 K, Crystal 1 | 494.9
242.15 K, Crystal 1 | 498.7
244.46 K, Crystal 1 | 503.6
246.77 K, Crystal 1 | 507.1
249.09 K, Crystal 1 | 511.5
250 K, Crystal 1 | 513.6
251.4 K, Crystal 1 | 516.4
253.72 K, Crystal 1 | 521
255.92 K, Crystal 1 | 524.6
256.03 K, Crystal 1 | 524.6
258.35 K, Crystal 1 | 529.7
259.52 K, Crystal 1 | 530.8
260 K, Crystal 1 | 532.3
260.9 K, Crystal 1 | 534.6
262.9 K, Crystal 1 | 537.3
262.99 K, Crystal 1 | 536.3
265.31 K, Crystal 1 | 542.1
266.27 K, Crystal 1 | 542.9
267.63 K, Crystal 1 | 546.6
269.63 K, Crystal 1 | 548.4
269.94 K, Crystal 1 | 551.7
270 K, Crystal 1 | 550.2
271.74 K, Crystal 1 | 553.4
272.99 K, Crystal 1 | 555.5
274.21 K, Crystal 1 | 556.6
276.35 K, Crystal 1 | 562.2
276.54 K, Crystal 1 | 562
278.86 K, Crystal 1 | 565.7
279.7 K, Crystal 1 | 568.4
280 K, Crystal 1 | 568.6
281.15 K, Crystal 1 | 570.9
283.05 K, Crystal 1 | 574.7
283.4 K, Crystal 1 | 575.9
285.69 K, Crystal 1 | 580.8
286.39 K, Crystal 1 | 581.4
287.93 K, Crystal 1 | 584.1
289.74 K, Crystal 1 | 587.6
290 K, Crystal 1 | 588.2
290.2 K, Crystal 1 | 587.9
292.47 K, Crystal 1 | 592.6
293.07 K, Crystal 1 | 594.1
294.75 K, Crystal 1 | 598.5
296.41 K, Crystal 1 | 600.8
297.02 K, Crystal 1 | 602.8
298.15 K, Crystal 1 | 604.8
299.28 K, Crystal 1 | 607.2
299.74 K, Crystal 1 | 606.1
300 K, Crystal 1 | 608.6
301.54 K, Crystal 1 | 611.3
303.07 K, Crystal 1 | 615.7
303.8 K, Crystal 1 | 617.2
306.05 K, Crystal 1 | 621.4
306.4 K, Crystal 1 | 622.2
308.26 K, Crystal 1 | 624.1
309.65 K, Crystal 1 | 627.8
310 K, Crystal 1 | 628.6
310.51 K, Crystal 1 | 629.5
312.76 K, Crystal 1 | 633
312.99 K, Crystal 1 | 634.1
315.01 K, Crystal 1 | 636.6
316.33 K, Crystal 1 | 639.9
317.25 K, Crystal 1 | 644.1
319.5 K, Crystal 1 | 647.2
319.67 K, Crystal 1 | 646.8
320 K, Crystal 1 | 647.5
321.75 K, Crystal 1 | 651.6
323.01 K, Crystal 1 | 652.2
324 K, Crystal 1 | 655.2
326.24 K, Crystal 1 | 660
326.36 K, Crystal 1 | 659.5
328.49 K, Crystal 1 | 664.4
329.71 K, Crystal 1 | 665.6
330 K, Crystal 1 | 666.6
330.74 K, Crystal 1 | 670
332.99 K, Crystal 1 | 672.4
333.06 K, Crystal 1 | 673.1
335.24 K, Crystal 1 | 679.6
336.41 K, Crystal 1 | 679.8
337.49 K, Crystal 1 | 684.3
339.74 K, Crystal 1 | 691.4
339.75 K, Crystal 1 | 688.9
340 K, Crystal 1 | 691.3
341.99 K, Crystal 1 | 697.1
343.1 K, Crystal 1 | 701.5
346 K, Crystal 1 | 713.9
346.44 K, Crystal 1 | 717.2
